Where two headings read alike, the source gives them in different places.
Tests used:
[1] = test system: Pseudomonas aeruginosa; assay: Serial twofold agar dilution (Mueller-Hinton agar), P. aeruginosa; type: cell-based; details: Pseudomonas aeruginosa, Mueller-Hinton agar, read-out: MIC
Description: (§1) The Minimum Inhibitory Concentrations (MIC) for sodium 6-[D-(-)-α-phenyl-α-(7-hydroxy-4-oxo-4H-pyrimido[1,2-b]pyridazin-3-ylcarboxamido)acetamido]penicillanate (BB-P598) and sulbenicillin were determined by the serial twofold agar dilution method using Steers' apparatus on Mueller-Hinton agar plates against 31 test organisms for the primary screening (Table 1) and also against 61 strains of Pseudomonas aeruginosa for the secondary evaluation (Table 2).
(§2) Minimum Inhibitory Concentrations (MIC) for sodium 6-[D-(-)-α-phenyl-α-(7-hydroxy-4-oxo-4H-pyrimido[1,2-b]pyridazin-3-ylcarboxamido)acetamido]pencillanate (BB-P598), sodium 6-[D-(-)-α-(4-hydroxyphenyl)-α-(7-hydroxy-4-oxo-4H-pyrimido[1,2-b]pyridazin-3-ylcarboxamido)acetamido]-penicillanate (BB-P642) and carbenicillin were determined by the serial twofold agar dilution method using Steers' apparatus on Mueller-Hinton agar plates against 31 tests organisms (Table 8) and also against 61 strains of Pseudomonas aeruginosa (Table 9). In terms of mean % relative activity compared with carbenicillin, compounds BB-B598 and BB-P642 were 856% and 1319% as active as carbenicillin against the 61 Pseudomonas strains of Table 9.

[2] = test system: P. vulgaris; assay: Serial twofold agar dilution (Mueller-Hinton agar), P. vulgaris; type: cell-based
Description: as §1, §2

[3] = test system: E. cloacae; assay: Serial twofold agar dilution (Mueller-Hinton agar), E. cloacae; type: cell-based; details: Enterobacter cloacae
Description: as §1, §2

[4] = test system: K. pneumoniae; assay: Serial twofold agar dilution (Mueller-Hinton agar), K. pneumoniae; type: cell-based
Description: as §1, §2

[5] = test system: Pseudomonas sp.; assay: Serial twofold agar dilution (Mueller-Hinton agar), Pseudomonas sp.; type: cell-based
Description: as §1, §2

[6] = test system: P. mirabilis; assay: Serial twofold agar dilution (Mueller-Hinton agar), P. mirabilis; type: cell-based; details: Proteus mirabilis, P. mirabilis A9900, Mueller-Hinton agar, read-out: MIC
Description: as §1, §2

[7] = Mouse blood levels after subcutaneous administration; details: in vivo, sc, 20 mg/kg
Description: Mouse blood levels of BB-[…] and BB-[…] were determined by subcutaneous administration of 20 mg/kg of the penicillin to groups of three mice. Blood samples collected from orbital sinuses were assayed by the paper disk agar-diffusion method on Sarcina lutea PC1 1001 plates.

[8] = test system: Klebsiella sp.; assay: Serial twofold agar dilution (Mueller-Hinton agar), Klebsiella sp.; type: cell-based; details: Klebsiella sp. A20452, Mueller-Hinton agar
Description: as §1, §2

For `CC1(C)S[C@@H]2[C@H](NC(=O)[C@H](NC(=O)c3cnc4ccc(O)nn4c3=O)c3ccccc3)C(=O)N2[C@H]1C(=O)O` [BB-P598, sodium 6-[D-(-)-α-phenyl-α-(7-hydroxy-4-oxo-4H-pyrimido[1,2-b]pyridazin-3-ylcarboxamido)acetamido]penicillanate], the MIC ([1]; Pa-25 A20897, Table 2) was 1.6 µg/mL, the MIC ([1]; Pa-25 A20897, Table 9) was 1.6 µg/mL and the MIC ([1]; Pa-26 PS32, Table 9) was 25 µg/mL. The MIC ([1]; Pa-26 Ps32, Table 2) was 1.6 µg/mL, the MIC ([1]; Pa-28 C.P.H. 10527/72, Table 9) was 3.1 µg/mL and the MIC ([1]; Pa-28 CPH10527/72, Table 2) was 6.3 µg/mL. The MIC ([1]; Pa-29 D122, Table 2) was 3.1 µg/mL, the MIC ([1]; Pa-29 D122, Table 9) was 3.1 µg/mL and the MIC ([1]; Pa-30 A20600, Table 2) was 3.1 µg/mL. It also gave an MIC ([1]; Pa-30 A20600, Table 9) of 1.6 µg/mL, an MIC ([1]; Pa-31 A20594, Table 2) of 0.8 µg/mL and an MIC ([1]; Pa-31 A20594, Table 9) of 1.6 µg/mL. The MIC ([1]; Pa-32 A20595, Table 2) was 3.1 µg/mL, the MIC ([1]; Pa-32 A20595, Table 9) was 3.1 µg/mL and the MIC ([1]; Pa-33 A20598, Table 2) was 12.5 µg/mL. The MIC ([1]; Pa-33 A20598, Table 9) was 1.6 µg/mL, the MIC ([1]; Pa-34 A20603, Table 2) was 3.1 µg/mL and the MIC ([1]; Pa-34 A20603, Table 9) was 1.6 µg/mL. The MIC ([1]; Pa-35, Table 2) was 12.5 µg/mL, the MIC ([1]; Pa-35, Table 9) was 6.3 µg/mL and the MIC ([1]; Pa-36, Table 2) was 0.4 µg/mL. The MIC ([1]; Pa-36, Table 9) was less than 0.2 µg/mL, the MIC ([1]; Pa-37 A20130, Table 2) was 3.1 µg/mL and the MIC ([1]; Pa-37 A20130, Table 9) was 3.1 µg/mL. For the same compound, the MIC ([1]; Pa-38 A20349, Table 2) was 6.3 µg/mL, the MIC ([1]; Pa-38 A20349, Table 9) was 12.5 µg/mL and the MIC ([1]; Pa-39 A20641, Table 2) was 3.1 µg/mL. For the same compound, the MIC ([1]; Pa-39 A20641, Table 9) was 1.6 µg/mL, the MIC ([1]; Pa-41 A21227, Table 2) was 3.1 µg/mL and the MIC ([1]; Pa-41 A21227, Table 9) was 3.1 µg/mL. For the same compound, the MIC ([1]; Pa-42 A21229, Table 2) was 25 µg/mL, the MIC ([1]; Pa-42 A21229, Table 9) was 6.3 µg/mL and the MIC ([1]; Pa-43 A21233, Table 2) was 3.1 µg/mL. The MIC ([1]; Pa-43 A21233, Table 9) was 3.1 µg/mL, the MIC ([1]; Pa-44 A21274, Table 2) was 3.1 µg/mL and the MIC ([1]; Pa-44 A21274, Table 9) was 6.3 µg/mL. For the same compound, the MIC ([1]; Pa-51 A9910, Table 2) was 3.1 µg/mL, the MIC ([1]; Pa-51 A9910, Table 9) was 3.1 µg/mL and the MIC ([1]; Pa-52 A9926, Table 2) was 3.1 µg/mL. For the same compound, the MIC ([1]; Pa-52 A9926, Table 9) was 3.1 µg/mL, the MIC ([1]; Pa-53 A20126, Table 2) was 3.1 µg/mL and the MIC ([1]; Pa-53 A20126, Table 9) was 3.1 µg/mL. For the same compound, the MIC ([1]; Pa-54 A20128, Table 2) was 3.1 µg/mL, the MIC ([1]; Pa-54 A20128, Table 9) was 3.1 µg/mL and the MIC ([1]; Pa-55 A20227, Table 2) was 3.1 µg/mL. It also gave an MIC ([1]; Pa-55 A20227, Table 9) of 3.1 µg/mL, an MIC ([1]; Pa-56 A20228, Table 2) of 3.1 µg/mL and an MIC ([1]; Pa-56 A20228, Table 9) of 3.1 µg/mL. It also gave an MIC ([1]; Pa-57 A20546, Table 2) of 3.1 µg/mL, an MIC ([1]; Pa-57 A20546, Table 9) of 3.1 µg/mL and an MIC ([1]; Pa-58 A20557, Table 2) of 6.3 µg/mL. For the same compound, the MIC ([1]; Pa-58 A20557, Table 9) was 6.3 µg/mL, the MIC ([1]; Pa-59 A20574, Table 2) was 6.3 µg/mL and the MIC ([1]; Pa-59 A20574, Table 9) was 1.6 µg/mL. It also gave an MIC ([1]; Pa-60 A20602, Table 2) of 1.6 µg/mL, an MIC ([1]; Pa-60 A20602, Table 9) of 1.6 µg/mL and an MIC ([1]; Pa-61 A20726, Table 2) of 6.3 µg/mL. The MIC ([1]; Pa-61 A20726, Table 9) was 3.1 µg/mL, the MIC ([1]; Pa-62 A21213, Table 2) was 12.5 µg/mL and the MIC ([1]; Pa-62 A21213, Table 9) was greater than 100 µg/mL. The MIC ([1]; Pa-64 A21336, Table 2) was 3.1 µg/mL, the MIC ([1]; Pa-64 A21336, Table 9) was 1.6 µg/mL and the MIC ([1]; Pa-65 A21428, Table 2) was 1.6 µg/mL. For the same compound, the MIC ([1]; Pa-65 A21428, Table 9) was 1.6 µg/mL, the MIC ([1]; Pa-66 A21434, Table 2) was 3.1 µg/mL and the MIC ([1]; Pa-66 A21434, Table 9) was 3.1 µg/mL. It also gave an MIC ([1]; Pa-67 A21509, Table 2) of 6.3 µg/mL, an MIC ([1]; Pa-67 A21509, Table 9) of 6.3 µg/mL and an MIC ([1]; Pa-68 A21510, Table 2) of 6.3 µg/mL. The MIC ([1]; Pa-68 A21510, Table 9) was 3.1 µg/mL, the MIC ([1]; Pa-69 A21587, Table 2) was 12.5 µg/mL and the MIC ([1]; Pa-69 A21587, Table 9) was 6.3 µg/mL. It also gave an MIC ([1]; Pa-70 K-PS102 (KR-102), Table 9) of 3.1 µg/mL, an MIC ([1]; Pa-70 K-Ps102 (CR-102), Table 2) of 3.1 µg/mL and an MIC ([2]; P. vulgaris A9539, Table 1) of 25 µg/mL. The MIC ([2]; Proteus vulgaris, P. vulgaris A9539, Table 8, read-out: MIC) was 25 µg/mL, the MIC ([3]; E. cloacae A9656, Table 1) was 25 µg/mL and the MIC ([3]; E. cloacae A9656, Table 8) was 25 µg/mL. For the same compound, the MIC ([3]; E. cloacae A9657, Table 1) was 50 µg/mL, the MIC ([3]; E. cloacae A9657, Table 8) was 100 µg/mL and the MIC ([3]; E. cloacae A9659, Table 1) was 25 µg/mL. It also gave an MIC ([3]; E. cloacae A9659, Table 8) of 25 µg/mL, an MIC ([4]; K. pneumoniae A9977, Table 1) of 12.5 µg/mL and an MIC ([4]; Klebsiella pneumoniae, K. pneumoniae A9977, Table 8, read-out: MIC) of 12.5 µg/mL. It also gave an MIC ([5]; Pseudomonas sp. A20358, Table 1, read-out: MIC) of 1.6 µg/mL, an MIC ([5]; Pseudomonas sp. A20358, Table 8) of 1.6 µg/mL and an MIC ([6]; Table 1) of 0.2 µg/mL. For the same compound, the MIC ([6]; Table 8) was 6.3 µg/mL, the concentration at 0.25 h [7] was 3570 ng/mL and the concentration at 0.5 h [7] was 900 ng/mL. It also gave an MIC ([8]; Table 1, read-out: MIC) of 25 µg/mL and an MIC ([8]; Table 8, read-out: MIC) of 12.5 µg/mL.

Reference: patent US4231928A, “Antibacterial agents” (priority 1979, dated 1980)
